Data on 14 molecules can be found in patent US9206123B2, “Prodrugs of inhibitors of plasma kallikrein” (ActiveSite Pharmaceuticals, Inc., priority 2009, dated 2015).

For test [1], the target named is T1, Human plasma kallikrein (PK) (Homo sapiens, UniProt P03952).
T1 construct: purchased Enzyme Research Laboratories (Gary, Ind.)
Kind of test: Human plasma kallikrein (PK) enzymatic inhibition assay, substrate H-D-Pro-Phe-Arg-pNA. The format is biochemical. Conditions: corrected Ki from Ki,app; 2 nM PK, 0.05 M HEPES pH 7.5, Km 0.33 mM. As for the experimental part:
Human plasma kallikrein (PK) was obtained from Enzyme Research Laboratories (Gary, Ind.). The enzymatic activity of PK was assayed using the synthetic peptide substrate H-D-Pro-Phe-Arg-pNA (Bachem, Peninsula City, Calif.) with the cleavage of the substrate by the enzyme resulting in an increase in A405, measured using a Molecular Devices Vmax Kinetic Microplate Reader. The uninhibited (control) activity of PK was determined by adding 190 μl of PK solution (2 nM in 0.05 M HEPES, pH 7.5, 0.01% Triton X-100) to 10 μl of H-D-Pro-Phe-Arg-pNA (2 mM in DMSO) in individual microtiter plate wells, mixed immediately by shaking, and the rate of increase in absorbance at 405 nm (A405) determined over 120-180 sec. In parallel, compounds of general formula V were mixed in separate wells with the synthetic substrate to attain final concentrations of between 0.01-10 μM in the final 200 μl reaction mixture, and the reaction initiated by the addition of 190 μl of the PK solution. A diminished rate of cleavage in the presence of a compound of general formula V denotes inhibition of PK activity, and the apparent inhibition constant (Ki,app) of the interaction can be determined by using the following equation— Ki,app=[I]/(PKControl/PKI−1) where [I]=concentration of inhibitory compound, PKcontrol=rate of substrate cleavage by uninhibited PK, PKI=rate of substrate cleavage by PK in the presence of inhibitory compound.
The corrected Ki of the interaction can be obtained as follows from the calculated Ki,app— Ki=Ki,app/([S]/Km+1) Where [S]=concentration of synthetic substrate, and Km=Michaelis constant of synthetic substrate for PK, in this case determined experimentally to be 0.33 mM under these conditions.

For test [2], the system named is sepsis. The following applies: LPS or bacterial induced sepsis in animals; cited from earlier work.
Test [3] has as its system retinal vascular permeability. Conditions: angiotensin-II-treated rodents; Phipps et al. 2009; cited from earlier work.
Another test deals with hemorrhagic stroke. The following applies: model of hemorrhagic stroke; cited from earlier work.
Another test relates to ischemic stroke. Conditions: rat model of ischemic stroke; cited from earlier work.
The next test relates to hereditary angioedema. The following applies: patients with hereditary angioedema; cited from earlier work.
A further test deals with arthritis. The following applies: rat models of arthritis; cited from earlier work.
Test [4] deals with retinal vascular permeability. The test can be described thus: Angiotensin-II infusion model, retinal vascular permeability by vitreous fluorescein fluorophotometry. The format is in vivo, Sprague-Dawley rats. The following applies: twice-daily oral gavage for five days. The source says: Continuous infusion of the vasoconstrictor peptide angiotensin-II in Sprague-Dawley rats over 3-7 days using subcutaneously implanted Alzet minipumps results in elevated blood pressure, and is accompanied by increased retinal vascular permeability, which can be measured using the technique of vitreous fluorescein fluorophotometry, as described in the prior art (Clermont, A. C., et al (2006) Invest Ophthalmol V is Sci.; 47: 2701-8). […] Inhibition of the excess retinal vascular permeability in this animal model following administration of compounds of the present invention via oral, subcutaneous, topical or intravitreal routes thus provides evidence of inhibition of plasma kallikrein in vivo.

Test [5] relates to sepsis. Conditions: sepsis patients; cited from earlier work.
The test system of test [6] is middle cerebral artery occlusion. Conditions: mouse model of middle cerebral artery occlusion; cited from earlier work.

“Also recorded” adds a separate entry of the source. Non-standard residues stand in square brackets, D forms with d. *: point of attachment. CH2Cl = ClC*

T1 sequence (P03952 391-638 limits assumed): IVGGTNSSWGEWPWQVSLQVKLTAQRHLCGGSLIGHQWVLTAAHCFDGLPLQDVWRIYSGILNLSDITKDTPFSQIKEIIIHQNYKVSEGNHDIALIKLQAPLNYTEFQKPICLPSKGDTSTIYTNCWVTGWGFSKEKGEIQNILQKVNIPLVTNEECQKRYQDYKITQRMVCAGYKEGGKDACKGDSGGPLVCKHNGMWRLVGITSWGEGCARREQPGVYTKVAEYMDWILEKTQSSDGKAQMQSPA
T1 sequence (P03952 20-390 partner limits assumed): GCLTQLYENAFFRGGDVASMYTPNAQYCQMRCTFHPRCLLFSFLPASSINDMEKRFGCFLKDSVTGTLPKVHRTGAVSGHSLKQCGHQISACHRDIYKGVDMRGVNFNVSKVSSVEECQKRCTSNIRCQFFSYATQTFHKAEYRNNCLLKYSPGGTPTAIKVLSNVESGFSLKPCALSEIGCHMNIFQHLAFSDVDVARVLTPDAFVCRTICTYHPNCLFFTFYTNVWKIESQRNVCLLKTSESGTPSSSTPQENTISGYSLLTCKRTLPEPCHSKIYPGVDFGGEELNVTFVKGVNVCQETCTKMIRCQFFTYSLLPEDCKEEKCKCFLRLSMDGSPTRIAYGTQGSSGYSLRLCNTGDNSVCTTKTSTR

The molecule `Cc1cc(C(=O)NCc2ccc(C(=N)N)cc2)c(C)n1-c1ccc(Cl)cc1` [Example 12, N-[(4-carbamimidoylphenyl)methyl]-1-(4-chlorophenyl)-2,5-dimethyl-pyrrole-3-carboxamide] showed a Ki in [1] of 7 nM.
In test [1], `Cc1cc(C(=O)NCc2ccc(C(=N)N)cc2)c(C)n1-c1ccccn1` [N-[(4-carbamimidoylphenyl)methyl]-2,5-dimethyl-1-(2-pyridyl)pyrrole-3-carboxamide] yielded a Ki of 35 nM.
Consider “H-[dP]-Phe-Arg-CH2Cl [reference compound]”, for which the “effect on vascular permeability and lesions” value with sepsis [2] is “reduce vascular permeability in multiple organs and reduce lesions”.
The molecule `Cc1cc(C(=O)NCc2ccc(C(=N)N)cc2)c(C)n1-c1nccs1` [N-[(4-carbamimidoylphenyl)methyl]-2,5-dimethyl-1-thiazol-2-yl-pyrrole-3-carboxamide] had a Ki in test [1] of 68 nM.
Consider Hoe-140, for which the “effect on retinal vascular permeability” value in test [3] is given as “reduce retinal vascular permeability”.
With `N=C(N)c1ccc(CNC(=O)c2cnn(Cc3ccccc3)c2)cc1` [ASP-440], in test [3], the “effect on retinal vascular permeability” value is recorded as “reduce retinal vascular permeability; also recorded: effective in reducing retinal vascular permeability”. Further, the “effect on expansion of intracerebral hemorrhage” value in the test on hemorrhagic stroke is “reduce”. The “effect on infarction volume and cerebrovascular edema” value in the test with ischemic stroke is “reduce infarction volume and cerebrovascular edema”.
In [1], `Cc1cc(C(=O)NCc2ccc(C(=N)N)cc2)c(C)n1-c1ccc2c(c1)OCCO2` [N-[(4-carbamimidoylphenyl)methyl]-1-(2,3-dihydro-1,4-benzodioxin-6-yl)-2,5-dimethyl-pyrrole-3-carboxamide] displayed a Ki of 14 nM.
On the same count and under the same terms, the figure for `COc1ccc(-n2c(C)cc(C(=O)NCc3ccc(C(=N)N)cc3)c2C)cc1` [Example 13, N-[(4-carbamimidoylphenyl)methyl]-1-(4-methoxyphenyl)-2,5-dimethyl-pyrrole-3-carboxamide] is 17 nM; for `Cc1cc(C(=O)NCc2ccc(C(=N)N)cc2)c(C)n1-c1ccc(F)cc1` [Example 11, N-[(4-carbamimidoylphenyl)methyl]-1-(4-fluorophenyl)-2,5-dimethyl-pyrrole-3-carboxamide] it is 13 nM.
As to `NC(N)=NCCC[C@@H](N)C(=O)N[C@@H](CCCN=C(N)N)C(=O)N1CCC[C@H]1C(=O)N1C[C@H](O)C[C@H]1C(=O)NCC(=O)N[C@@H](Cc1cccs1)C(=O)N[C@@H](CO)C(=O)N1Cc2ccccc2C[C@@H]1C(=O)N1[C@H](C(=O)N[C@@H](CCCN=C(N)N)C(=O)O)C[C@@H]2CCCC[C@@H]21` [icatibant], in the test on hereditary angioedema, the “effect on edema / hereditary angioedema” value is on record as “effective in treating hereditary angioedema”.
Turning to `Cc1cc(C(=O)NCc2ccc(C(=N)N)cc2)c(C)n1-c1cccnc1` [N-[(4-carbamimidoylphenyl)methyl]-2,5-dimethyl-1-(3-pyridyl)pyrrole-3-carboxamide], the Ki in test [1] turned out to be 46 nM.
On to `Cl.NCC1CCC(C(=O)N[C@@H](Cc2ccccc2)C(=O)Nc2ccc(CC(=O)O)cc2)CC1` (stereo partly drawn) [PKSI-527], for which the “effect on joint swelling” value in the test on arthritis is “reduce joint swelling”.
In the case of `COC(=O)/N=C(\N)c1ccc(CNC(=O)c2cc(C)n(-c3ccc(F)cc3)c2C)cc1` [Example 4, (Z)-methyl amino-(4-((1-(4-fluorophenyl)-2,5-dimethyl-pyrrole-3-carbonylamino)methyl)phenyl)methylenecarbamate], the “reduction of retinal vascular permeability” value in test [4] came to 55%.

B1: C1-INH: the major endogenous inhibitor of PK (protein, UniProt P05155 23-500, looked up)
Plasma protease C1 inhibitor: NPNATSSSSQDPESLQDRGEGKVATTVISKMLFVEPILEVSSLPTTNSTTNSATKITANTTDEPTTQPTTEPTTQPTIQPTQPTTQLPTDSPTQPTTGSFCPGPVTLCSDLESHSTEAVLGDALVDFSLKLYHAFSAMKKVETNMAFSPFSIASLLTQVLLGAGENTKTNLESILSYPKDFTCVHQALKGFTTKGVTSVSQIFHSPDLAIRDTFVNASRTLYSSSPRVLSNNSDANLELINTWVAKNTNNKISRLLDSLPSDTRLVLLNAIYLSAKWKTTFDPKKTRMEPFHFKNSVIKVPMMNSKKYPVAHFIDQTLKAKVGQLQLSHNLSLVILVPQNLKHRLEDMEQALSPSVFKAIMEKLEMSKFQPTLLTLPRIKVTTSQDMLSIMEKLEFFDFSYDLNLCGLTEDPDLQVSAMQHQTVLELTETGVEAAAASAISVARTLLVFEVQQPFLFVLWDQQHKFPVFMGRVYDPRA
Turning to B1, in the test on sepsis [5], the clinical outcome was “Clinical improvement”. For the same molecule, the “effect on infarct size” value in test [6] is on record as “reduced infarct size”. Further, the “effect on vascular permeability and lesions” value with sepsis [2] was “reduce vascular permeability in multiple organs and reduce lesions”.
